Data reported in patent US9776997B2, “3-aryl-substituted imidazo[1,2-A]pyridines and their use” (Bayer Pharma Aktiengesellschaft, priority 2013, dated 2017).
Counter-ions that a name gives are not always drawn.

Molecular target: T1, recombinant guanylate cyclase reporter cell line (Rattus norvegicus, UniProt P19686+P20595)
T1 construct: expressed in transfected cells; host or cells: recombinant reporter cell line
T1 sequence (P19686 1-690): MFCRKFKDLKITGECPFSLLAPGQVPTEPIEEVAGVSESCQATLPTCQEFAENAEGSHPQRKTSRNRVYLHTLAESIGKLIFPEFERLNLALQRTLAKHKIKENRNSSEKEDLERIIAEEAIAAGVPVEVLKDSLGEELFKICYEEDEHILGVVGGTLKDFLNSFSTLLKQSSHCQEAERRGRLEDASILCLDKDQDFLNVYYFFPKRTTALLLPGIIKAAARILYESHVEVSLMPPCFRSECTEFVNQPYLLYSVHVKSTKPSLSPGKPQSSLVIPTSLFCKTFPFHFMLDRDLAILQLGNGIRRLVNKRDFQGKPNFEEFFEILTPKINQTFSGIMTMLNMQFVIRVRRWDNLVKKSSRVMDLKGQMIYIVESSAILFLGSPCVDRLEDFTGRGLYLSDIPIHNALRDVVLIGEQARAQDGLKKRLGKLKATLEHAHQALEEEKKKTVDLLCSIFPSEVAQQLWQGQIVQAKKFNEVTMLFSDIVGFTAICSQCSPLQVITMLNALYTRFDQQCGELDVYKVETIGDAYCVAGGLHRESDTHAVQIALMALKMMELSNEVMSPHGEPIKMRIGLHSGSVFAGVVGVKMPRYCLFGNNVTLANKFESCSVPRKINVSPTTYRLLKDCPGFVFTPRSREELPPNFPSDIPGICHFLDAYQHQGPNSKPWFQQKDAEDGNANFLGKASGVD
T1 sequence (P20595 1-619): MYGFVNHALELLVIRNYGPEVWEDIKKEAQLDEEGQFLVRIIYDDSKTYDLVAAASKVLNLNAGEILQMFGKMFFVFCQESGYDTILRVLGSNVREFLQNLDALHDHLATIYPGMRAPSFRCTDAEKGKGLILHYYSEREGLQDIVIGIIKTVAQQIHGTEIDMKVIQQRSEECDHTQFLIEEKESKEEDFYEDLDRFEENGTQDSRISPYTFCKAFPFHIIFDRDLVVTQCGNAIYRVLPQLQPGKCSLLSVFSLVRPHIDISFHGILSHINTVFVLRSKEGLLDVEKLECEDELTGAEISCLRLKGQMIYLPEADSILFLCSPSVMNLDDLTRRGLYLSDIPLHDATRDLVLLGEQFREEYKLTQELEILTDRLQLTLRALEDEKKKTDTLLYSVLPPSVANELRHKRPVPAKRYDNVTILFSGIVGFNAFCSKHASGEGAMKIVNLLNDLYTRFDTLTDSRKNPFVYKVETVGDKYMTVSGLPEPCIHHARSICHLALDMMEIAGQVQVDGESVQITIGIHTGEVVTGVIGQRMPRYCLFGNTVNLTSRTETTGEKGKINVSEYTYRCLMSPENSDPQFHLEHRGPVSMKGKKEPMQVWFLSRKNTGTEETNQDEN
Experiment: Effect on a recombinant guanylate cyclase reporter cell line
Type: cell-based
Details: MEC = minimum effective concentration; in some cases mean values for individual determinations
Procedure: B-2. Effect on a Recombinant Guanylate Cyclase Reporter Cell Line
The cellular effect of the inventive compounds is determined using a recombinant guanylate cyclase reporter cell line, as described in F. Wunder et al., Anal. Biochem. 339, 104-112 (2005).
Representative MEC values (MEC=minimum effective concentration) for the inventive compounds are shown in the table below (in some cases as mean values for individual determinations): […]

Row | SMILES | MEC [µM]
1 | Cc1cc(OCc2c(F)cccc2F)c2nc(C)c(-c3cnn(CCN4CCS(=O)(=O)CC4)c3)n2c1 [Example 93, 8-[(2,6-Difluorobenzyl)oxy]-3-{1-[2-(1,1-dioxidothiomorpholin-4-yl)ethyl]-1H-pyrazol-4-yl}-2,6-dimethylimidazo[1,2-a]pyridine] | 0.1
2 | CCC(C)c1nnc(-c2c(C)nc3c(OCC4CCCCC4)cccn23)o1 (stereo not shown) [Example 70] | 3.0
3 | Cc1cc(OCc2c(F)cccc2F)c2nc(C)c(-c3cnn(C4CC4C(=O)O)c3)n2c1 (stereo not shown) [Example 111] | 1.0
4 | Cc1cc(OCc2c(F)cccc2F)c2nc(C)c(-c3nccc(C(N)=O)n3)n2c1 [Example 80, 2-{8-[(2,6-Difluorobenzyl)oxy]-2,6-dimethylimidazo[1,2-a]pyridin-3-yl}pyrimidine-4-carboxamide trifluoroacetate] | 0.3
5 | Cc1cc(-c2c(C)nc3c(OCc4c(F)cccc4F)cccn23)cnc1Cl [Example 12, 3-(6-chloro-5-methylpyridin-3-yl)-8-[(2,6-difluorobenzyl)oxy]-2-methylimidazo[1,2-a]pyridine] | 0.1
6 | Cc1nc2c(OCc3c(F)cccc3F)cccn2c1-c1cccc(O)c1 [Example 8, 3-{8-[(2,6-difluorobenzyl)oxy]-2-methylimidazo[1,2-a]pyridin-3-yl}phenol] | 0.1
7 | CCOc1ccc(-c2c(C)nc3c(OCc4c(F)cccc4F)cccn23)cc1 [Example 10, 8-[(2,6-difluorobenzyl)oxy]-3-(4-ethoxyphenyl)-2-methylimidazo[1,2-a]pyridine] | 1.0
8 | Cc1nc2c(OCC3CCCCC3)cccn2c1-c1nnc(-c2cccnc2)o1 [Example 64] | 3.0
9 | Cc1nc2c(OCC3CCCCC3)cccn2c1-c1nnc(C2CCS(=O)(=O)C2)o1 (stereo not shown) [Example 73] | 3.0
10 | Cc1cc(OCc2c(F)cccc2F)c2nc(C)c(-c3n[nH]c(C(F)(F)F)n3)n2c1 [Example 126, 8-[(2,6-Difluorobenzyl)oxy]-2,6-dimethyl-3-[5-(trifluoromethyl)-1H-1,2,4-triazol-3-yl]imidazo[1,2-a]pyridine] | 3.0
11 | Cc1nc2c(OCc3c(F)cccc3F)cccn2c1-c1ccc(C(=O)NC2CC2)cc1 [Example 9, N-cyclopropyl-4-{8-[(2,6-difluorobenzyl)oxy]-2-methylimidazo[1,2-a]pyridin-3-yl}benzamide] | 0.3
12 | Cc1nc(-c2nnc(-c3c(C)nc4c(OCC5CCCCC5)cccn34)o2)cs1 [Example 69] | 3.0
13 | Cc1nc2c(OCc3c(F)cccc3F)cccn2c1-c1cnn(C)c1 [Example 50] | 0.3
